Experimental data taken from ChEMBL document CHEMBL3045737, “Evaluation of toxicity and genotoxic effects of spinosad and deltamethrin in Drosophila melanogaster and Bactrocera oleae” (Pest Manag Sci, 2011).
In brackets after ≈: the same amount, converted by molar mass.

How the values were obtained:
Drosophila melanogaster [1] = assay: Insecticidal activity against Drosophila melanogaster adults assessed as death treated upto 192 hr at 24 +/- 1 degC, 60%RH; assay type: functional; settings: for LC50: Drosophila melanogaster, 192 h
Bactrocera oleae [2] = assay: Insecticidal activity against Bactrocera oleae adults assessed as death treated upto 24 hr at 24 +/- 1 degC, 60%RH; assay type: functional; settings: for LC50: Bactrocera oleae, 24 h
Drosophila melanogaster [3] = assay: Insecticidal activity against Drosophila melanogaster adults assessed as death treated upto 72 hr at 24 +/- 1 degC, 60%RH; assay type: functional; settings: for LC50: Drosophila melanogaster, 72 h
Bactrocera oleae [4] = assay: Insecticidal activity against Bactrocera oleae adults assessed as death treated upto 120 hr at 24 +/- 1 degC, 60%RH; assay type: functional; settings: for LC50: Bactrocera oleae, 120 h
Drosophila melanogaster [5] = assay: Genotoxicity in Drosophila melanogaster larvae at 0.10 to 0.30 mg/l; assay type: organism-based; settings: in vivo
Bactrocera oleae [6] = assay: Insecticidal activity against Bactrocera oleae adults assessed as death treated upto 192 hr at 24 +/- 1 degC, 60%RH; assay type: functional; settings: for LC50: Bactrocera oleae, 192 h
Drosophila melanogaster [7] = assay: Insecticidal activity against Drosophila melanogaster adults assessed as death treated upto 120 hr at 24 +/- 1 degC, 60%RH; assay type: functional; settings: for LC50: Drosophila melanogaster, 120 h
Drosophila melanogaster [8] = assay: Insecticidal activity against Drosophila melanogaster adults assessed as death treated upto 24 hr at 24 +/- 1 degC, 60%RH; assay type: functional; settings: for LC50: Drosophila melanogaster, 24 h
Drosophila melanogaster [9] = assay: Insecticidal activity against Drosophila melanogaster larvae assessed as death at 24 +/- 1 degC, 60%RH; assay type: functional; settings: for LC50: Drosophila melanogaster
Bactrocera oleae [10] = assay: Insecticidal activity against Bactrocera oleae adults assessed as death treated upto 72 hr at 24 +/- 1 degC, 60%RH; assay type: functional; settings: for LC50: Bactrocera oleae, 72 h
Drosophila melanogaster [11] = assay: Genotoxicity in Drosophila melanogaster larvae at 7.50 to 10 mg/l; assay type: organism-based; settings: in vivo
Drosophila melanogaster [12] = assay: Genotoxicity in Drosophila melanogaster larvae at 10^-3 M; assay type: organism-based; settings: in vivo, 1000 µM

## CC[C@H]1CCC[C@H](O[C@H]2CC[C@H](N(C)C)[C@@H](C)O2)[C@@H](C)C(=O)C2=C[C@@H]3[C@@H](C=C(C)[C@@H]4C[C@@H](O[C@@H]5O[C@@H](C)[C@H](OC)[C@@H](OC)[C@H]5OC)C[C@@H]34)[C@@H]2CC(=O)O1.CC[C@H]1CCC[C@H](O[C@H]2CC[C@H](N(C)C)[C@@H](C)O2)[C@@H](C)C(=O)C2=C[C@@H]3[C@@H](C=C[C@@H]4C[C@@H](O[C@@H]5O[C@@H](C)[C@H](OC)[C@@H](OC)[C@H]5OC)C[C@@H]34)[C@@H]2CC(=O)O1
Drosophila melanogaster [1]
  LC90: 0.367 µg/mL
  LC50: 0.262 µg/mL
Bactrocera oleae [2]
  LC90: 7.277 µg/mL
  LC50: 4.06 µg/mL
Drosophila melanogaster [3]
  LC90: 1.998 µg/mL
  LC50: 1.26 µg/mL
Bactrocera oleae [4]
  LC90: 0.422 µg/mL
  LC50: 0.191 µg/mL
Drosophila melanogaster [5]
  Activity: Non-toxic
Bactrocera oleae [6]
  LC90: 0.345 µg/mL
  LC50: 0.111 µg/mL
Drosophila melanogaster [7]
  LC90: 1.074 µg/mL
  LC50: 0.75 µg/mL
Drosophila melanogaster [8]
  LC90: 5.604 µg/mL
  LC50: 3.8 µg/mL
Drosophila melanogaster [9]
  LC90: 0.308 µg/mL
  LC50: 0.13 µg/mL
Bactrocera oleae [10]
  LC90: 0.598 µg/mL
  LC50: 0.341 µg/mL

## CC1(C)[C@H](C(=O)O[C@H](C#N)c2cccc(Oc3ccccc3)c2)[C@@H]1C=C(Br)Br [DELTAMETHRIN]
Drosophila melanogaster [1]
  LC90: 10.352 µg/mL (≈ 20.5 µM)
  LC50: 4.82 µg/mL (≈ 9.53 µM)
Bactrocera oleae [2]
  LC90: 6.033 µg/mL (≈ 11.9 µM)
  LC50: 2.85 µg/mL (≈ 5.64 µM)
Drosophila melanogaster [3]
  LC90: 14.591 µg/mL (≈ 28.9 µM)
  LC50: 8.03 µg/mL (≈ 15.9 µM)
Drosophila melanogaster [11]
  Activity: Non-toxic
Bactrocera oleae [4]
  LC90: 0.161 µg/mL (≈ 0.319 µM)
  LC50: 0.176 µg/mL (≈ 0.348 µM)
Bactrocera oleae [6]
  LC90: 0.398 µg/mL (≈ 0.788 µM)
  LC50: 0.414 µg/mL (≈ 0.819 µM)
Drosophila melanogaster [7]
  LC90: 13.599 µg/mL (≈ 26.9 µM)
  LC50: 7.24 µg/mL (≈ 14.3 µM)
Drosophila melanogaster [8]
  LC90: 31.682 µg/mL (≈ 62.7 µM)
  LC50: 17.1 µg/mL (≈ 33.8 µM)
Drosophila melanogaster [9]
  LC90: 17.41 µg/mL (≈ 34.5 µM)
  LC50: 4.96 µg/mL (≈ 9.81 µM)
Bactrocera oleae [10]
  LC90: 1.002 µg/mL (≈ 1.98 µM)
  LC50: 0.344 µg/mL (≈ 0.681 µM)

## CCOS(C)(=O)=O [METHANESULFONIC ACID ETHYL ESTER]
Drosophila melanogaster [12]
  Activity: Toxic
